Marks after values point to notes of the source that are not given here.
Columns and labels:
glycerol-rat model = experiment: Acute renal protection in the glycerol rat (haemolytic-uraemic syndrome); type: in vivo; conditions: Group 3: glycerol + 10 mg/kg BW p.o. 8 and 19 h after glycerol injection
Source text: B-2. Acute Renal Protection by Partial A1 Agonists in the Glyeriol Rat (Haemolytic-Uraemic Syndrome; Example for Acute Kidney Disorders)
Glycerol-induced haemolysis in rats is an established animal model for investigating haemolysis-induced, acute renal failure with decrease of the individual nephron filtrate and a rapid increase in substances that are usually eliminated in the urine, such as creatinine and urea. Haemolytic uraemia leads to acute blockade of the tubules through protein deposits (“luminal casts”) and finally to degeneration/necrosis of the tubules. At present there is no known curative therapy, i.e. an antidegenerative therapy of structural kidney injury.
Procedure: male Wistar:WU rats (200-220 g) from Charles River received, after withdrawal of water for 14-18 hours, a single subcutaneous injection of a 50% glycerol solution (8 ml/kg body weight) or 0.9% NaCl (controls). The following groups were investigated:
Group 2 Glycerol+placebo (60 g glycerol+100 g water+969 g PEG-400); n=12
Group 3 Glycerol+10 mg/kg BW partial A1 agonist EXAMPLE 1, p.o. in placebo, 8 and 19 hours after glycerol injection; n=8
At the end of the protocol (=24 hours after glycerol intoxication), the following samples were obtained/measurements were carried out: four-hour urine collection with administration of water (10 ml water/kg body weight, p.o.), and TaqMan analyses of renal injury markers in the renal cortex of the right kidney and histological assessment of the “kidney injury score” in the left kidney, by determining the degree of renal damage from the intensity of “luminal casts+tubular necrosis/degeneration”.

[1] = tested on: unilaterally nephrectomized SHR; experiment: Functional and structural renal dysfunction in unilaterally nephrectomized spontaneously hypertensive rats; type: in vivo, rat; conditions: Group 4: SNX + 1.0 mg/kg body weight/day p.o., 4 weeks
Source text: B-4. Effects of Partial A1 Agonists on Renal and Cardiac Function in Unilaterally Nephrectomized and Spontaneously Hypertensive Rats (Example 2 for Chronic Kidney Disorders)
Unilaterally nephrectomized, spontaneously hypertensive rats (SHR) are an established animal model for investigating the development and progression of hypertensive damage of the glomeruli in the remaining kidney [H. Kinuno et al., “Effects of uninephrectomy on renal structural properties in spontaneously hypertensive rats”, Clin and Exp Pharmacol and Physiol 2005, 32, 173-178]. […] Furthermore, renal excretion of substances usually eliminated in the urine, such as creatinine and urea, is reduced and the electrolyte metabolism is disturbed, the latter being associated with volume retention.
Procedure: male SHR rats (180-220 g) from Taconic had the left kidney removed in one session (=UNX). Normotensive Wistar Kyoto rats (WKY) from Taconic served as control. The following groups, each with 12 rats per group, were investigated:
Group 2 UNX+placebo (60 g glycerol+100 g water+969 g PEG-400)
Group 3 UNX+10 mg/kg body weight/day enalapril (reference therapy, in the drinking water)
Group 4 SNX+1.0 mg/kg body weight/day partial A1 EXAMPLE 1, p.o. in placebo
Group 5 SNX+3.0 mg/kg body weight/day partial A1 EXAMPLE 4, p.o. in placebo
Three weeks after unilateral nephrectomy, the SHRs developed manifest hypertensive damage of the glomeruli in the remaining kidney, from this time point on the rats were treated for a further four weeks corresponding to the groups given above. At the end of the protocol, the following samples were obtained/measurements were carried out: eight-hour urine collection, invasive measurement of systolic and diastolic left ventricular function, and TaqMan analyses of renal injury markers in the renal cortex.

N#Cc1c(N)nc(SCc2csc(-c3ccc(Cl)cc3)n2)c(C#N)c1-c1ccc(OCCO)cc1 [EXAMPLE 1, 2-Amino-6-({[2-(4-chlorophenyl)-1,3-thiazol-4-yl]methyl}sulphanyl)-4-[4-(2-hydroxyethoxy)phenyl]pyridine-3,5-dicarbonitrile]
P-creatinine (glycerol-rat model; 24 h after glycerol): 52 ± 1 µmol/L | P-urea (glycerol-rat model; 24 h after glycerol): 11 ± 0.4*^ mmol/l | Kidney injury marker-1 (glycerol-rat model; TaqMan, renal cortex): 951 ± 216 rel. expression | Lipocalin-2 (glycerol-rat model; TaqMan, renal cortex): 204 ± 23 rel. expression | Osteopontin (glycerol-rat model; TaqMan, renal cortex): 5575 ± 694 rel. expression | U-creatinine (glycerol-rat model; four-hour urine collection): 0.2 ± 0.03 μmol/ml urine/kg BW/h | U-protein (glycerol-rat model; four-hour urine collection): 0.02 ± 0.01 μmol/ml urine/kg BW/h | U-sodium (glycerol-rat model; four-hour urine collection): 4 ± 1 μmol/ml urine/kg BW/h | U-urea (glycerol-rat model; four-hour urine collection): 31 ± 6 μmol/ml urine/kg BW/h | Urine volume (glycerol-rat model; four-hour urine collection): 6.7 ± 0.6 ml/kg BW/h | Kidney injury score (histo) (glycerol-rat model; left kidney, luminal casts + tubular necrosis/degeneration): 1.12 | P-creatinine [1]: 62 ± 1.1 mmol/L | P-urea [1]: 9.3 ± 0.4 mmol/L | U-creatinine [1]: 2.1 ± 0.4 μmol/ml urine/kg BW/h | U-protein [1]: 0.53 ± 0.10 μmol/ml urine/kg BW/h | U-sodium [1]: 37 ± 9 μmol/ml urine/kg BW/h | U-urea [1]: 186 ± 31 μmol/ml urine/kg BW/h | Urine volume [1]: 2.1 ± 0.2 ml/kg BW/h | CYR61 [gene expression] ([1]; renal cortex): 395 ± 47 rel. expression | Lipocalin-2 [gene expression] ([1]; renal cortex): 160 ± 24 rel. expression

From patent US20160311812A1, “ADENOSINE A1 AGONISTS AS MEDICAMENTS FOR KIDNEY DISORDERS” (BAYER PHARMA AKTIENGESELLSCHAFT, priority 2013, published 2016)
